Measurements taken from US10011587B2, “Multivalent ligands targeting VEGFR” (THE METHODIST HOSPITAL SYSTEM, priority 2014, dated 2018).
Blank lines part the entries; values can stand above or below the compound they belong to.

Legend:
[1] = tested on: VEGF receptor on HUVECs; test: Blocking assay of FAM-conjugated compounds; assay type: cell-based, human; details: HUVEC
Method: Specific binding of ZD6474-monomer and dimer were tested with blocking studies. Unlabeled ZD6474-monomer and ZD6474-dimer were mixed with the corresponding FAM-conjugated compounds simultaneously for 3 h. Plates were then imaged using the Xenogen IVIS-200 system. Similarly treated cells were fixed in 4% paraformaldehyde and imaged under fluorescent microscopy after staining the nuclei with DAPI.

[2] = In vitro cell viability (MTT), cancer cell lines; assay type: cell-based, human; details: human, MDA-MB-231, HCT-116 and U-87-MG cancer cells; 100 μM, cancer cell lines, 72 h; read-out: cells remaining viable
Method: (§1) MDA-MB-231 and U-87-MG cell lines were cultured in DMEM medium (Gibco, Grand Island, N.Y.) containing 10% fetal bovine serum (FBS) and 1% penicillin streptomycin at 37° C. in a humidified atmosphere of 5% CO2 in air. HCT 116 (human, colorectal carcinoma cell line) was grown in McCoy's 5a medium modified with 10% FBS. HUVECs (Human Umbilical Vein Endothelial cells) were grown in EGM medium (Lonza), supplemented with 20% FBS, 100 U/mL penicillin, 100 μg/mL streptomycin at 37° C. under a humidified atmosphere of 5% CO2 and 95% O2 with same condition as above. For the cell viability assay, the cells were then seeded into 96-well flat-bottomed tissue-culture plates at 1×10^4 cells/well and incubated for 24 or 72 h in humidified atmosphere of 5% (v/v) CO2 at 37° C. in the presence of each compound. For HUVECs, the flat-bottomed 96-well plate (Corning, N.Y., USA) was coated 1 h at 37° C. with gelatin (0.3% in PBS, pH 7.4) and then washed with PBS. The cells were then treated with ZD6474 monomer and its dimer compounds in the range from 5 nM to 100 μM concentration mixed with 1% FBS added culture medium (HUVECs was 2% FBS added). Following 24 and 72 h of incubation under 5% CO2 at 37° C., the cells were washed with PBS and cell viability was assessed by MTT colorimetric assay. The absorbance of individual wells was measured by using an automated microplate reader (570 nm; VERSAmax, Molecular Devices Corp., Sunnyvale, Calif.). The data are expressed as the percentage of viable cells compared to the survival of a control group and were presented as mean±s.e. (n=6).

[3] = tested on: HUVECs; test: In vitro cell viability (MTT), HUVECs; assay type: cell-based, human
Method: as §1, with “The cells were then treated with ZD6474 monomer and its dimer compounds in the range from 5 nM to 100 μM concentration mixed with 1% FBS added culture medium (HUVECs was 2% FBS added).” left out, “(n=6).” left out

[4] = tested on: HUVECs; test: In vitro tubular formation on Matrigel; assay type: cell-based, human; details: 10 μM, 6 h
Method: Growth factor reduced Matrigel (100 μL, BD Bioscience, San Jose, Calif., USA) was added to each well of a 96-well plate and allowed to polymerize for 30 min at 37° C. HUVECs were suspended in the medium at the density of 4×10^5 cells per milliliter, and 0.1 mL of the cell suspension was added to each well coated with Matrigel in the presence of ZD6474 monomer or ZD6474 dimer Cells were incubated at 37° C. for 6 h, and then photographed. The branch points were counted and averaged.

[5] = tested on: MDA-MB-231, HCT-116, U-87-MG; test: In vitro cell viability (MTT), cancer cell lines; assay type: cell-based, human
Method: as §1

[6] = tested on: VEGF165-induced angiogenesis; test: In vivo Matrigel plug assay; design: species or system nu/nu nude mice; details: VEGF165 500 ng/mL, compound 100 μM, 10 days
Method: The matrigel plug assays were performed injecting 637 μL of growth factor reduced liquid Matrigel-PBS mixture was into subcutaneously into the flanks of nu/nu nude mice at 4° C. Once inside the animals, the liquid Matrigel-PBS mixture solidifies. For comparison, Matrigel alone as well as Matrigel containing VEGF165 (Peprotech, Rocky Hill, N.J.) at a final concentration of 500 ng/mL to stimulate angiogenesis, and Matrigel with VEGF165 along with either ZD6474 monomer, ZD6474 dimer at a final concentration of 100 μM were used. All of the injection groups consisted of three mice. After 10 days, the mice were sacrificed and the Matrigel plugs were removed, fixed in 4% formalin and photographed.

[7] = molecular target: T1, VEGFR2 (Homo sapiens, UniProt P35968); test: Cell VEGFR2 receptor-binding assay, displacement/competition; details: read-out: 50% inhibitory concentration (IC50)
T1 construct: evaluated by saturation and displacement assays using U87 cells; endogenous in cells; host or cells: U87 (U87MG) human glioblastoma cells
Method: Cells were seeded in 12 well plates at concentration of 5×10^5 cells per well the day before the experiment. […] The cells were then washed with cold PBS and trypsinized. The cell-associated radioactivity was measured using γ-counter (Perkin-Elmer, CT) and the Kd values were calculated by fitting the data by nonlinear regression using GraphPad Prism (GraphPad Software, CA). […] The experiment procedures are similar with those used for the saturation study described above. All experiments were carried out with triplicate samples.

[8] = molecular target: T2, VEGFR (Homo sapiens, UniProt P35968); test: VEGFR cell receptor-binding assay, competition against 64Cu-DOTA-ZD-G2; details: U-87 MG cells, 1 uCi 64Cu-DOTA-ZD-G2 per well, 4° C., 1 hour
T2 construct: endogenous in cells; host or cells: U-87 MG human glioblastoma cells
Method: Cells were seeded in 12-well plates at a density about 5×10^5 cells per well the day before the experiment. […] The HPLC purified radio-tracer was re-dissolved in FBS-free DMEM medium and diluted to 1 uCi/100 uL. […] After incubation at 4° C. for 1 hour, the supernatant with free radio tracer was removed carefully and the cells were then washed with cold PBS for three times and trypsinized. The cells were collected and cell pellet associated radioactivity was measured and the binding affinity values (IC50) were calculated by nonlinear regression using GraphPad Prism (GraphPad Software, CA). All experiments were carried out in triplicate.

[9] = tested on: MDA-MB-231 cells and HUVEC; test: In vitro cellular uptake of FAM-conjugated compounds; assay type: cell-based, human; details: 3 h, 100 nM dose
Method: Each of the FAM-conjugated compounds was incubated with MDA-MB-231 cells seeded 24 h earlier in a 96 well plate with 1% serum medium. Serial dilutions of the compounds were incubated for 3 h. The treated medium was then exchanged for fresh serum free medium. The remaining compound was then quantified from images taken using a Xenogen IVIS-200 (PerkinElmer, Inc. San Jose, Calif.) fluorescent imaging system. The same was done with HUVEC.

[10] = tested on: U87-MG human glioblastoma xenograft; test: Ex vivo tumor accumulation and biodistribution fluorescence imaging; assay type: in vivo, nu/nu female mice
Method: The subcutaneous dorsa of five nu/nu female mice (6 weeks old; 20 g) were inoculated bilaterally with 1×10^7 U87-MG human glioblastoma cells overexpressing the VEGF receptor. Once the tumor diameter was approximately 7-8 mm at 21 days post implant, the mice were divided into three groups for the following injections: (a) free FAM (n=1), (b) FAM-labeled ZD6474-monomer (50 μM; n=2), and (c) FAM-labeled ZD6474-dimer (50 μM, n=2). The animals were manually restrained during intravenous tail injection. All tail vein injections were carried out with a 31 gauge needle placed in a lateral tail vein to inject 100 μL of solution. Twenty-four hours post injection, fluorescence images were acquired using a one second exposure time. The tumors and major organs were dissected and imaged again. […] In vivo fluorescence imaging was performed using the Xenogen IVIS 200 imaging system. To better observe the signal without losses and background due to intervening tissue, fluorescence images were collected ex vivo. Raw counts for each organ were measured using the Xenogen software by drawing oval regions of interest (ROI) around the organ of interest. […] An estimate of the percentage of injected dose accumulated in the tumors was established by comparing measured counts/volume of tissue with the measured counts/volume of a known concentration of the same compound in water at the same exposure. […]

T2 sequence (P35968 20-1356): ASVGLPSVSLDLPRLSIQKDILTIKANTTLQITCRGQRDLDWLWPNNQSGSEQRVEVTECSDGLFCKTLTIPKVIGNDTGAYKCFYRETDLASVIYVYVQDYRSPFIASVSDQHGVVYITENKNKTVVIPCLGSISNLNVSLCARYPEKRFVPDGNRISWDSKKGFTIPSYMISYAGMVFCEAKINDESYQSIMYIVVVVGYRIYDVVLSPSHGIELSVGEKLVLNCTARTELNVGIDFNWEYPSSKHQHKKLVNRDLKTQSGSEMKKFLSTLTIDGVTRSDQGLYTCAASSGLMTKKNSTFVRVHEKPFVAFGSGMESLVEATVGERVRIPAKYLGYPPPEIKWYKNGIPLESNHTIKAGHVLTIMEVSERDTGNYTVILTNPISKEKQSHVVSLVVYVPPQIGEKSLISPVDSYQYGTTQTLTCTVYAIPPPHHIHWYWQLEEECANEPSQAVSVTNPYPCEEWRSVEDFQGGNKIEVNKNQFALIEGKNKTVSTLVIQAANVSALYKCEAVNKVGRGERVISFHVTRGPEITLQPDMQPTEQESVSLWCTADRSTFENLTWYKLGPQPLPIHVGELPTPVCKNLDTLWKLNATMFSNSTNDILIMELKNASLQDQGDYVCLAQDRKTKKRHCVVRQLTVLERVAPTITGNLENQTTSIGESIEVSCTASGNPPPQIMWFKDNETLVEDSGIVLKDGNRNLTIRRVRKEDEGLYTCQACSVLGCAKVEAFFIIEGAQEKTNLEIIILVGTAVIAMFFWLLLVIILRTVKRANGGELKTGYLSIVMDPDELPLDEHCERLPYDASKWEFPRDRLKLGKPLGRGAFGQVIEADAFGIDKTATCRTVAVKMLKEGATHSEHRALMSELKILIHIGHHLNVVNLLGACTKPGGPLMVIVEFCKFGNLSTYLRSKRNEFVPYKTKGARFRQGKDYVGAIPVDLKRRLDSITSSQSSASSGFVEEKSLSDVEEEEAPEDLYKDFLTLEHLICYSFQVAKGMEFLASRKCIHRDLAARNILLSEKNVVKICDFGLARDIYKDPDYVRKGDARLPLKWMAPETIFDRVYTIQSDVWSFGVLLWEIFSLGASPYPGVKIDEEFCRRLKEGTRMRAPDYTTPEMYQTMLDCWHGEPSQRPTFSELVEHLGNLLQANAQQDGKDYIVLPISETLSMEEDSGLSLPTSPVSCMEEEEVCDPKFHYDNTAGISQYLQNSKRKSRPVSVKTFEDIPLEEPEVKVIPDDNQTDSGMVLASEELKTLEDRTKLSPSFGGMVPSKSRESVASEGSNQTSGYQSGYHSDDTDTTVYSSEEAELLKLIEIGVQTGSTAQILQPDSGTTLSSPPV
T1 sequence (P35968 20-1356): as above

mean blocked signal relative to blocked dimer FAM ([1]; 100× unlabeled compound, 10 μM dose): over 10 ×
Compound: COc1cc2c(Nc3ccc(Br)cc3F)ncnc2cc1OCC1CCN(C(=O)c2ccc(C(=O)O)c(-c3c4ccc(=O)cc-4oc4cc(O)ccc34)c2)CC1 [monomer-FAM]

IC50 [7]: 0.023 ± 0.002 nM | IC50 [8]: 0.026 nM
Compound: COc1cc2c(Nc3ccc(Br)cc3F)ncnc2cc1OCC1CCN(C(=O)OCCN(CCOC(=O)NCCN)CCOC(=O)N2CCC(COc3cc4ncnc(Nc5ccc(Br)cc5F)c4cc3OC)CC2)CC1 [ZD-G2]

blocking of fluorescence (cellular uptake images) ([1]; 100 μM ZD6474-dimer): Complete blocking of fluorescence | loss of FAM signal when mixed with unlabeled dimer ([1]; 100× unlabeled ZD6474-dimer, 3 h): ~90% | total injected dose ending up in the tumors ([10]; 24 h after i.v. injection, estimate against known dye concentrations): at least 6% | fluorescent intensity of tumors relative to tumors in other groups and organs ([10]; ex vivo, 24 h following i.v. injection): about 20 ×
Compound: COc1cc2c(Nc3ccc(Br)cc3F)ncnc2cc1OCC1CCN(C(=O)CCCCCC(NC(=O)c2ccc(C(=O)O)c(-c3c4ccc(=O)cc-4oc4cc(O)ccc34)c2)C(=O)N2CCC(COc3cc4ncnc(Nc5ccc(Br)cc5F)c4cc3OC)CC2)CC1 (stereo not shown) [dimer-FAM]
uptake in HUVECs compared with MDA-MB-231 cells [9]: overall higher uptake of dimer-FAM by HUVECs

More lines, now with the values behind:

Compound: COc1cc2c(Nc3ccc(Br)cc3F)ncnc2cc1OCC1CCN(C)CC1 [ZD-G1, vandetanib, reference compound]
viability at 72 h, 100 µM [2]: ~50% | concentration at which cell viability begins to be affected [3]: 500 nM | number of tube branches (control group 100%) [4]: 52.0±4.8%

Compound: COc1cc2c(Nc3ccc(Br)cc3F)ncnc2cc1OCC1CCN(C(=O)CCCCCC(N)C(=O)N2CCC(COc3cc4ncnc(Nc5ccc(Br)cc5F)c4cc3OC)CC2)CC1 (stereo not shown) [ZD6474-dimer]
toxicity to the cancer cells ([5]; 5 nM to 50 μM): low toxicity | cells remaining viable ([5]; 100 μM, cancer cell lines, 72 h): around 50% | concentration at which cell viability begins to be affected [3]: 500 nM | number of tube branches (control group 100%) [4]: 75±5.2% | appearance of Matrigel plugs (blood vessel formation) [6]: almost the same as the PBS treated negative control group
